| melting point | Compound |
| --- | --- |
| 210 to 214 °C | CCc1cc(-c2ccc(-c3cc(CCC(=O)NCc4cccnc4)[nH]n3)cc2)ccc1O |
| 295 to 297 °C | CCOC(=O)c1cn(C)c2c(=O)c3cc(Cl)ccc3oc2c1=O |
| > 285 °C | COC(=O)c1ccc2cc(OCC(=O)O)ccc2c1 |
| > 285 °C | COc1ccccc1Nc1nc(-c2ccccc2)c(C(=O)c2sc(Nc3ccccc3OC)nc2-c2ccccc2)s1 |
| 190 to 192 °C | CCn1cc(OC(=O)c2ccccc2)c(=O)c2ccccc21 |
| 187 to 189 °C | C=CCc1cc2c(ccc(=O)n2CC=C(C)C)c(CC=C)c1O |
| 160 °C | CSc1cc(C(C)(C)C)ccc1O |
| 50 to 52 °C | CCN(CC)C(=O)C(C)(C)n1cc(C)c(-c2ccccc2)n1 |
| 205 to 209 °C | NC(C(=O)O)C1CC(C(=O)O)C1C(=O)O (stereo not drawn) |
| 103 to 104 °C | CCOC(=O)COc1cc2c(c(Cl)c1Cl)C(=O)C(CC#C[Si](C)(C)C)(c1ccc(Cl)cc1)C2 (stereo not drawn) |
| 110 to 112 °C | CCCC(=O)N(C)Cc1c(-c2ccc(C)cc2)nc2n1-c1ccccc1CC2 |
| 99 °C | Cc1c(CC(=O)NCCO)cc(-c2ccc(S(C)(=O)=O)cc2)n1-c1ccc(F)cc1 |
| > 235 °C | O=C1NC(=O)C(Cc2ccc([N+](=O)[O-])cc2)N1 (stereo not drawn) |
| 80.3 °C | Cc1cc(C2=C(c3ccc(S(C)(=O)=O)cc3)C(C)(C)OC2=O)ccc1-c1cscn1 |
| 103 to 104 °C | CCCC(O)C1(C)OC(C)=C(O)C1=O (stereo not drawn) |
| 166 to 167 °C | CNC(=O)c1cccc(CNc2ccccc2C(=O)Nc2cccc(C(F)(F)F)c2)c1 |
| 36 °C | COc1ccc(Cl)cc1C(=O)NCCc1ccc(CCCCCCC(=O)O)cc1 |
| 156 to 157 °C | O=C1CCN(Cc2ccc(O)cc2)CC1C1c2ccccc2C=Cc2ccccc21 (stereo not drawn) |
| 138 to 139 °C | Cc1onc(-c2ccc(C(F)(F)F)cc2)c1CCC(=O)O |
| 102 to 103 °C | COC(=O)[C@@H]1C[C@@H](OS(C)(=O)=O)CN1C(=O)C1(C)CC1 |
| 112 to 113 °C | CCCOc1nn(-c2ccc(C(F)(F)F)cn2)cc1CCCOc1ccc(CCC(=O)O)c(OCC)c1 |
| 77 to 79 °C | CN[C@H]1CCN(c2c(F)cc3c(=O)n(NC)c(=O)n(C4CC4)c3c2Cl)C1 |
| > 300 °C | Nc1nc2ccccc2c2c1nc1n2OCC1 |
| 213 to 216 °C | Nc1ccc2c(Cl)cc(Cl)nc2n1 |
| 159 to 161 °C | CCCc1nc2c(N)nc3ccccc3c2n1CCCCNS(=O)(=O)c1ccccc1 |

| melting point | Compound |
| --- | --- |
| 204 to 205 °C | CCn1c(=N)c(-c2cccs2)cc2cnc(Nc3ccccc3)nc21 |
| 166 to 167 °C | Oc1ccc(CCc2nc(-c3cccs3)c[nH]2)cc1 |
| 215 to 217 °C | O=C(O)c1ccc(NC(=O)c2ccccc2-c2ccccc2)nc1 |
| 194 to 196 °C | CC1=C(C(=O)OC(C)(C)C)C(c2ccccc2Cl)C(C(=O)OC(C)(C)C)=C(C)N1 |
| 101 to 102 °C | C/C=C\NC(=O)c1c(Cl)cccc1[Si](C)(C)C |
| 238 to 242 °C | CCOC(=O)c1c[nH]c2c(C)csc2c1=O |
| 308 to 312 °C | Cn1cc(C(=O)O)c(=O)c2oc3ccccc3c(=O)c21 |
| 159 to 161 °C | c1ccc(CC2CCN(Cc3ccn(-c4ccccc4)c3)CC2)cc1 |
| 168 to 169 °C | CS(=O)(=O)N(CC1CCCCC1)CC(O)(Cn1cncn1)c1ccc(Cl)cc1Cl (stereo not drawn) |
| > 260 °C | CCCCCCCCCCCCOC(=O)N[C@@H](CCCCN)C(=O)O |
| 144 to 148 °C | O=C(Nc1ccn(C2OC(CO)C(O)C2(F)F)c(=O)n1)OCc1ccc([N+](=O)[O-])s1 (stereo not drawn) |
| 71 to 72 °C | CCOC(=O)c1ccc([N+](=O)[O-])cc1C |
| 199 to 200 °C | COc1ccc2c(c1)c(O)c(C(=O)Nc1ccccc1)c(=O)n2C |
| 41 to 42 °C | CCCCCC1OC12CCC(Nc1ncnc(CC)c1Cl)CC2 (stereo not drawn) |
| 127 to 129 °C | CCN(CC)c1ccc2cc(C(=O)NN)oc2c1 |
| 74 to 76 °C | CC=CCn1c(CC)c(C)c2cnnc(OCc3ccc(F)cc3)c21 |
| 91 to 92 °C | CCOP(=O)(Cc1ccccc1CN1C(=O)c2ccccc2C1=O)OCC |
| 114 to 115 °C | CCCC(O)C(C)C(=O)NCc1ccccc1 (stereo not drawn) |
| 235 to 237 °C | O=C(O)CCCCN1CCN(C2=Nc3ccccc3Cc3ccccc32)CC1 |
| 129 to 131 °C | COc1ccc(CNC(=O)c2ccc([N+](=O)[O-])cc2N)cc1 |
| 126 to 128 °C | Nc1nc(N)nc(C2CN(C(c3ccccc3)c3ccccc3)C2)n1 |
| 231 to 233 °C | Cc1cn([C@H]2CC[C@H](CC(=O)O)C[C@@H]2NC(=O)OC(C)(C)C)c(=O)[nH]c1=O |
| 120 to 121 °C | O=C1C(C(c2cc(F)ccc2F)S(=O)(=O)c2ccc(Cl)cc2)CCCN1CCCO (stereo not drawn) |
| 100 °C | O=C1CCCCC(CO)N1 (stereo not drawn) |
| 104 to 105 °C | CCCCCS(=O)(=O)NC(=O)CCc1cc(OCCCC)nn1Cc1ccc(Cl)cc1Cl |

| melting point | Compound |
| --- | --- |
| 112 to 114 °C | Fc1ccc(CC[C@H]2CNCCN2)cc1 |
| 132 °C | CCOC(=O)Nc1cc(Oc2ccc3ccccc3c2)c(C#N)cc1F |
| 168 to 170 °C | Nc1ncnn1C(=S)NC1CCCCC1 |
| 78 to 80 °C | CCCc1[nH]c(C(=O)OCC)c(CCC)c1C |
| 200 to 202 °C | CCOC(=O)C(=CNc1ncnc2ccc(NS(C)(=O)=O)cc12)C(=O)OCC |
| 165 to 167 °C | Cc1cc(SCc2ccc(OCc3ccc(C(F)(F)F)cc3)cc2)c2c(c1OCC(=O)O)CCC2 |
| 165 to 167 °C | Cc1cc(C)nc(-c2ccc(CN3CCN(c4ccc(O)cc4)CC3)cc2)n1 |
| 280 to 282 °C | O=C1N[C@H](c2ccccc2)CSC[C@@H]1N1C(=O)c2ccccc2C1=O |
| 31 to 35 °C | CCC(=O)c1ccc(OCCOC)cc1 |
| 80 to 95 °C | CCCCC(=O)Nc1ccc([N+](=O)[O-])cc1Cl |
| 75 to 78 °C | COC1=C(OC)C(=O)C2=C(CCC(CCOc3ccc4c(c3)OCO4)CC2)C1=O |
| 137 to 140 °C | O=c1oc(=O)n(Cc2cccs2)c2ccccc12 |
| 43 to 45 °C | CCOc1nc2c(Cl)cccc2s1 |
| 200 to 202 °C | Cc1c(Nc2c(C#N)cncc2-c2cnc(C=O)n2C)ccc2[nH]ccc12 |
| 88 to 94 °C | C#CCNC(NCCSCc1[nH]cnc1C)=C(C#N)C(N)=O |
| 106 to 108 °C | COc1ccc(CO)nc1I |
| 85 to 86 °C | O=Cc1c(Cl)cc(OCc2ccccc2)cc1OCc1ccccc1 |
| 184 °C | CNS(=O)(=O)N1CCNC1=O |
| 138 to 140 °C | CN(C)Cc1ccccc1C1(c2ccc(Cl)cc2)OC(=O)c2ccccc21 (stereo not drawn) |
| 106 to 107 °C | O=C(/C=C/c1ccc(O)cc1)C(F)(F)F |
| 128 to 132 °C | CC(C)(C)NS(=O)(=O)c1cccc2c1CSC2 |
| 269 to 271 °C | FC(F)(F)Oc1ccc(-c2csc(Nc3cc4ccccc4cn3)n2)cc1 |
| 125 °C | COc1ccc(/C=C/C(=O)c2ccc(OCc3ccccc3)cc2OCc2ccccc2)c(OC)c1C |
| 186 to 188 °C | CC(=O)n1cc(O)c2cc(Cl)ccc21 |
| 218 °C | O=C(O)CCCCCNC(=O)c1cccc2c(=O)c3ccccc3[nH]c12 |

| melting point | Compound |
| --- | --- |
| 155 to 156 °C | C[C@@H]1Cc2cc([N+](=O)[O-])sc2[C@H](C)N1CCNC(=O)c1ccc([N+](=O)[O-])cc1 (relative stereo) |
| 97 to 99 °C | CCOC(=O)C(=[N+]=[N-])C(=O)c1cc(OC)ccc1C1CCc2cc(OC)ccc21 (stereo not drawn) |
| 46 to 47 °C | CCCCCCCCOc1ccc(C(=O)OC)c(O)c1 |
| 155 °C | CC(C)(C)OC(=O)NNc1ccc(NC(=O)OC(C)(C)C)cc1 |
| 61 to 63 °C | COC(=O)C(Cc1ccc(O)cc1)OC (stereo not drawn) |
| 193 to 195 °C | CNc1nc(C)c(-c2ccnc(Nc3cccc(CC(=O)OCCOC)c3)n2)s1 |
| 79 to 83 °C | C=CCN1C(=O)COc2ccc(C3CC(=O)C(C(CC)=NOCC)=C(O)C3)cc21 (stereo not drawn) |
| 159 to 161 °C | COc1cc(C)nc(NC(=O)NS(=O)(=O)c2c(C)nsc2OCC(F)(F)F)n1 |
| 144 to 145 °C | Cn1nc(C#N)c(Nc2ccccc2[N+](=O)[O-])n1 |
| 151 to 153 °C | CCOC(=O)c1cn2c(n1)CN(C(=O)OCC)c1ccccc1-2 |
| 46 to 48 °C | C=CCSc1nnc(OC)c2c1CCCC2 |
| 150 to 151 °C | CC1(C)COC(c2cc(-c3ccncc3)n(-c3ccc(F)cc3)n2)OC1 |
| 84 to 86 °C | CCCCCCCCCCS(=O)(=O)CCCOCCn1c(CCC)nc2c(N)nc3ccccc3c21 |
| 109 to 111 °C | O=C1NC2(CCCC2)CCCC1Cl (stereo not drawn) |
| 93 to 97 °C | CC(C)(C)C(=O)ON1C(C)(C)CC(OC(=O)CCCCCCCCC(=O)OC2CC(C)(C)N(OC(=O)C(C)(C)C)C(C)(C)C2)CC1(C)C |
| 130 to 132 °C | OC1(CNc2c(Br)cnc3ccccc23)CCCCC1 |
| 140 to 141 °C | CCOC(=O)CCCCCOc1ccc(C(=O)Nc2ccccc2Oc2ccccc2-c2nnn[nH]2)cc1 |
| 220 to 225 °C | O=C(Cc1ccc(CC(=O)Oc2cc(O)cc(O)c2)cc1)Oc1cc(O)cc(O)c1 |
| > 240 °C | COc1ccc2c(=O)cc(-c3ccc(O)c(O)c3)oc2c1 |
| 119 to 122 °C | O=C1c2c(ccc3c2OCCO3)S(=O)(=O)N1CCCCO |
| 82 to 84 °C | CCN1CC(=O)N(c2ccccc2C)C1=S |
| 201 °C | Cn1cnnc1C(O)(c1ccc(I)cc1)c1ccc2c(c1)C(c1cccc(Cl)c1)Nc1nnnn1-2 (stereo not drawn) |

| Compound | melting point |
| --- | --- |
| CC(=O)C1CCC2C3CCC4CC(C)(O)CCC4(C)C3C(=O)CC12C (stereo not drawn) | 175 °C |
| C1=C(c2c[nH]cn2)c2ccccc2C1 | 232 to 240 °C |
| c1ccc(N2c3ccccc3[C@@H]3CN(CC4CCC4)CC[C@H]32)cc1 | 76.5 to 77 °C |
| ClCC1CN(Cc2ccccc2)CCN1Cc1ccccc1 (stereo not drawn) | 54 to 56 °C |
| CCC1(CC)C(=N)N(c2ccc(C#N)c(C(F)(F)F)c2)C(=S)N1C | 167 to 168 °C |
| COc1cc(C)cc(OC)c1C1=NC(NC(=O)c2cc3ccccc3[nH]2)C(=O)N(C)c2ccccc21 (single isomer, unassigned; (-)) | 135 °C |

Source: a melting point compilation (Tetko et al.; mined from patent text by program, amines drawn as free bases though some values may be those of a salt)
